Results from patent US5458814A, “Substituted naphthopyrans” (Transitions Optical, Inc., priority 1993, dated 1995).

Experiment: Photochromic response on optical bench (lambda max, sensitivity, saturation optical density, bleach rate) of naphthopyrans imbibed into test square polymerizates
Assay type: physicochemical
Conditions: for BLEACH RATE T1/2: time for absorbance to reach one half the highest absorbance after removal of activating light, 75° F., 23.9° C.; for Δ OD @ SATURATION: UV exposure continued for 20 minutes; for Δ OD @ SATURATION / Δ OD/Min SENSITIVITY: diethylene glycol bis(allyl carbonate), 75° F. (23.9° C.); for Δ OD/Min SENSITIVITY: first five (5) seconds of UV exposure, expressed on a per minute basis; for LAMBDA MAX of the activated (colored) form in the visible spectrum: imbibed into diethylene glycol bis(allyl carbonate) composition
Protocol: Testing was done with selected photochromic naphthopyrans incorporated into test square polymerizates by one of two different imbibition processes. The test square polymerizates were prepared from a diethylene glycol bis(allyl carbonate) composition and measured 1/8 inch (0.3 centimeters)×2 inches (5.1 centimeters)×2 inches (5.1 centimeters). In one of the imbibition processes, the photochromic naphthopyran was dissolved to form a 10 weight percent solution in a 1:9 mixture of ethyl cellulose:toluene. The solution was then spin coated onto the test squares and allowed to dry. […] After cooling, the ethyl cellulose/toluene resin film was removed from the test squares by washing with acetone.
Alternatively, the test squares were imbibed by the following procedure. Each naphthopyran was dissolved into toluene to form a four (4) weight percent solution of the compound. A piece of No. 4 Whatman filter paper was saturated with the naphthopyran toluene solution and allowed to air dry. The dried filter paper was placed on one side of the test square. A piece of untreated filter paper was placed on the other side of the polymeric test square and the resulting sandwich was placed between two flat aluminum metal plates. […] After cooling, the test squares were washed with acetone.
The photochromic squares were tested for photochromic response rates on an optical bench. […] The bench was fitted with a 150 watt Xenon arc lamp, a remote controlled shutter, a copper sulfate bath acting as a heat sink for the arc lamp, a Schott WG-320 nm cut-off filter which removes short wavelength radiation; neutral density filter(s) and a sample holder in which the square to be tested was inserted. A collimated beam of light from a tungsten lamp was passed through the square at a small angle normal to the square. After passing through the square, the light from the tungsten lamp was directed through a photopic filter attached to a detector. The photopic filter passes wavelengths such that the detector mimics the response of the human eye. The output signals from the detector(s) were processed by a radiometer.
Change in optical density (ΔOD) was determined by inserting an imbibed square in the bleached state into the sample holder, adjusting the transmittance scale to 100%, opening the shutter from the Xenon lamp to provide ultraviolet radiation to change the imbibed square from the bleached state to an activated (i.e., darkened) state, measuring the transmittance in the activated state, and calculating the change in optical density according to the formula ΔOD=log(100% Ta) where % Ta is the percent transmittance in the activated state and the logarithm is to the base 10.
The ΔOD/Min, which represents the sensitivity of the photochromic compound's response to UV light, was measured over the first five (5) seconds of UV exposure, then expressed on a per minute basis. The saturation optical density (OD) was taken under identical conditions as the ΔOD/Min, except UV exposure was continued for 20 minutes for the examples in Table 1. The lambda max reported in Table 1 is the wavelength in the visible spectrum at which the maximum absorption of the activated (colored) form of the photochromic compound in a diethylene glycol bis(allyl carbonate) composition occurs.

SMILES | BLEACH RATE T1/2 (Table 2 comparison) | BLEACH RATE T1/2 (Table 1) | Δ OD @ SATURATION | Δ OD/Min SENSITIVITY | LAMBDA MAX of the activated (colored) form in the visible spectrum
C1=CC(c2ccccc2)(c2ccccc2)Oc2c1ccc1ccccc21 [Comparative Example 1, 2,2-diphenyl-[2H]-naphtho[1,2-b]pyran, reference compound] | > 30 min | – | – | – | –
Cc1cc2ccccc2c2c1C=CC(c1ccccc1)(c1ccccc1)O2 [Comparative Example 2, 2,2-diphenyl-5-methyl-[2H]-naphtho[1,2-b]pyran, reference compound] | 10.7 min | – | – | – | –
C1=CC2(Oc3c1ccc1ccccc31)C1CC3CC(C1)CC2C3 (centres unmarked) [Comparative Example 3, 2,2-spiroadamantylene-[2H]-naphtho[1,2-b]pyran, reference compound] | 3.75 min | – | – | – | –
COc1ccc(C2(C(C)(C)C)C=Cc3ccc4ccccc4c3O2)cc1 (centres unmarked) [Comparative Example 4, 2-(4-methoxyphenyl)-2-t-butyl-[2H]naphtho[1,2-b]pyran, reference compound] | > 30 min | – | – | – | –
COC(=O)c1c2c(c3ccccc3c1O)OC(c1ccc(OC)cc1)(c1ccc(OC)cc1)C=C2 [Example 1, 2,2-bis(4-methoxyphenyl)-5-methoxycarbonyl-6-hydroxy-[2H]-naphtho[1,2-b]pyran] | – | 3.92 min | 0.18 | 0.47 Δ OD/Min | 497 nm
COC(=O)c1c2c(c3ccccc3c1OC)OC(c1ccc(OC)cc1)(c1ccc(OC)cc1)C=C2 [Example 2, 2,2-bis(4-methoxyphenyl)-5-methoxycarbonyl-6-methoxy-[2H]-naphtho[1,2-b]pyran] | – | 5.08 min | 0.48 | 0.81 Δ OD/Min | 510 nm
CCOC(=O)COc1c(C(=O)OC)c2c(c3ccccc13)OC(c1ccc(OC)cc1)(c1ccc(OC)cc1)C=C2 [Example 3, 2,2-bis(4-methoxyphenyl)-5-methoxycarbonyl-6-ethoxycarbonylmethoxy-[2H]-naphtho[1,2-b]pyran] | – | 3.52 min | 0.44 | 0.79 Δ OD/Min | 508 nm
COC(=O)c1c2c(c3ccccc3c1OC(C)=O)OC(c1ccc(OC)cc1)(C(C)(C)C)C=C2 (centres unmarked) [Example 4, 2-(4-methoxyphenyl)-2-t-butyl-5-methoxycarbonyl-6-acetoxy-[2H]naphtho[1,2-b]pyran] | 7.22 min | – | – | – | –
COC(=O)c1c2c(c3ccccc3c1OCC#N)OC(c1ccccc1)(c1ccc(OC)cc1)C=C2 (centres unmarked) [Example 5, 2-(4-methoxyphenyl)-2-phenyl-5-methoxycarbonyl-6-(cyanomethoxy)-[2H]-naphtho [1,2-b]pyran] | – | – | – | – | 494 nm
COC(=O)Oc1c(C(=O)OC)c2c(c3ccccc13)OC(c1ccc(C)cc1)(c1ccc(C)cc1)C=C2 [Example 6, 2,2-bis(4-methylphenyl)-5-methoxycarbonyl-6-(methoxycarbonyloxy)-[2H]-naphtho[1,2-b]pyran] | – | 1.67 min | 0.17 | 0.32 Δ OD/Min | 482 nm
COC(=O)c1c2c(c3ccccc3c1OC(C)=O)OC(c1ccccc1)(c1ccccc1)C=C2 [Example 7, 2,2-diphenyl-5-methoxycarbonyl-6-acetoxy-[2H]-naphtho[1,2-b]pyran] | 3.67 min | – | – | – | –
COC(=O)c1c2c(c3ccccc3c1C)OC(c1ccc(OC)cc1)(c1ccc(OC)cc1)C=C2 [Example 8, 2,2-bis(4-methoxyphenyl)-5-methoxycarbonyl-6-methyl-[2H]-naphtho[1,2-b]pyran] | – | 3.62 min | 0.42 | 0.63 Δ OD/Min | 476 nm
COC(=O)c1c2c(c3cc(OC)ccc3c1C)OC(c1ccc(OC)cc1)(c1ccc(OC)cc1)C=C2 [Example 9, 2,2-bis(4-methoxyphenyl)-5-methoxycarbonyl-6-methyl-9-methoxy-[2H]-naphtho[1,2-b]pyran] | – | 6.27 min | 0.58 | 0.58 Δ OD/Min | 522 nm
CCC(=O)Oc1c(C(=O)OC)c2c(c3ccccc13)OC(c1ccccc1)(c1ccccc1)C=C2 [Example 10, 2,2-diphenyl-5-methoxycarbonyl-6-(propionyloxy)-[2H]-naphtho[1,2-b]pyran] | – | 4.28 min | 0.19 | 0.39 Δ OD/Min | 470 nm
COC(=O)c1c2c(c3ccccc3c1OC(C)=O)OC(c1cccc(C(F)(F)F)c1)(c1cccc(C(F)(F)F)c1)C=C2 [Example 11, 2,2-bis(3-trifluoromethylphenyl)-5-methoxycarbonyl-6-acetoxy-[2H]-naphtho[1,2-b]pyran] | – | 3.63 min | 0.08 | 0.15 Δ OD/Min | 455 nm
CCOC(=O)COc1c(C(=O)OC)c2c(c3ccccc13)OC(c1ccc(OC)cc1)(c1ccc3c(c1)CC(C)O3)C=C2 (centres unmarked) [Example 12, 2-(4-methoxyphenyl)-2-(2-methyl-2,3-dihydrobenzofur-5-yl)-5-methoxycarbonyl-6-ethoxycarbonylmethoxy-[2H]-naphtho[1,2-b]pyran] | – | 4.6 min | 0.53 | 0.83 Δ OD/Min | 517 nm
COC(=O)c1c2c(c3ccccc3c1OC)OC1(C=C2)C2CC3CC(C2)CC1C3 (centres unmarked) [Example 13, 2,2'-spiroadamantylene-5-methoxycarbonyl-6-methoxy-[2H]-naphtho[1,2-b]pyran] | 1.63 min | – | – | – | –
